Reference: patent US10968203B2, “Pyrimidinyl-pyridyloxy-naphthyl compounds and methods of treating IRE1-related diseases and disorders” (Genentech, Inc., priority 2017, dated 2021)
Counter-ions that a name gives are not always drawn.

Test system: XBP1s-luc 293 LUC
Assay: cellular PD assay, XBP1s-LUC reporter (Example 903)
Format: cell-based
Settings: Table 1; read-out: XBP1s-luc 293 LUC (IC50)
Method in brief: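 A luciferase fusion, in frame and expressed only when the XBP1 transcript is spliced, served as the readout of cellular IRE1α activity in an XBP1-Luc reporter line.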

SMILES	IC50 [nM]
Cc1ccc2c(NS(=O)(=O)N(C)C)c(F)ccc2c1Oc1ncccc1-c1ccnc(N[C@@H]2CNC[C@H](C)C2)n1 [Example 325, 4-[2-[[5-(Dimethylsulfamoylamino)-6-fluoro-2-methyl-1-naphthyl]oxy]-3-pyridyl]-2-[[(3S,5R)-5-methyl-3-piperidyl]amino]pyrimidine]	35
CO[C@@H](CNc1cccc2c(Oc3ncccc3-c3ccnc(N[C@H]4CCCNC4)n3)c(C)ccc12)C(F)(F)F [Example 326, 4-(2-((2-Methyl-5-(((S)-3,3,3-trifluoro-2-methoxypropyl)amino)naphthalen-1-yl)oxy)pyridin-3-yl)-N—((S)-piperidin-3-yl)pyrimidin-2-amine]	28.4
Cc1ccc2c(NCCC#N)cccc2c1Oc1ncccc1-c1ccnc(N[C@H]2CCCNC2)n1 [Example 329, (S)-3-((6-Methyl-5-((3-(2-(piperidin-3-ylamino)pyrimidin-4-yl)pyridin-2-yl)oxy)naphthalen-1-yl)amino)propanenitrile]	123
Cc1ccc2c(NCc3ccn(C)n3)cccc2c1Oc1ncccc1-c1ccnc(N[C@@H]2CNC[C@H](C)C2)n1 [Example 330, 4-(2-((2-Methyl-5-(((1-methyl-1H-pyrazol-3-yl)methyl)amino)naphthalen-1-yl)oxy)pyridin-3-yl)-N-((3S,5R)-5-methylpiperidin-3-yl)pyrimidin-2-amine]	197
Cc1ccc2c(N3CCCC3=O)c(F)ccc2c1Oc1ncccc1-c1ccnc(N[C@H]2CCCNC2)n1 [Example 335, (S)-1-(2-Fluoro-6-methyl-5-((3-(2-(piperidin-3-ylamino)pyrimidin-4-yl)pyridin-2-yl)oxy)naphthalen-1-yl)pyrrolidin-2-one]	384
CCCS(=O)(=O)Nc1cccc2c(Oc3ncc(Br)cc3-c3ccnc(N[C@H]4CCCNC4)n3)c(C)ccc12 [Example 336, (S)-N-(5-((5-Bromo-3-(2-(piperidin-3-ylamino)pyrimidin-4-yl)pyridin-2-yl)oxy)-6-methylnaphthalen-1-yl)propane-1-sulfonamide]	540
Cc1ccc2c(NC(=O)C3CC3)cccc2c1Oc1ncccc1-c1ccnc(N[C@H]2CCCNC2)n1 [Example 337, (S)—N-(6-Methyl-5-((3-(2-(piperidin-3-ylamino)pyrimidin-4-yl)pyridin-2-yl)oxy)naphthalen-1-yl)cyclopropanecarboxamide hydrochloride]	84.2
Cc1ccc2c(NC(=O)C(Cl)Cl)cccc2c1Oc1ncccc1-c1ccnc(N[C@H]2CCCNC2)n1 [Example 338, (S)-2,2-Dichloro-N-(6-methyl-5-(3-(2-(piperidin-3-ylamino)pyrimidin-4-yl)pyridin-2-yloxy)naphthalen-1-yl)acetamide]	161
Cc1ccc2c(NCCCC(F)(F)F)cccc2c1Oc1ncccc1-c1ccnc(N[C@H]2CCCNC2)n1 [Example 344, (S)-4-(2-((2-Methyl-5-((4,4,4-trifluorobutyl)amino)naphthalen-1-yl)oxy)pyridin-3-yl)-N-(piperidin-3-yl)pyrimidin-2-amine]	350
CCc1nc(CNc2cccc3c(Oc4ncccc4-c4ccnc(N[C@H]5CCCNC5)n4)c(C)ccc23)cs1 [Example 345, (S)-4-(2-((5-(((2-Ethylthiazol-4-yl)methyl)amino)-2-methylnaphthalen-1-yl)oxy)pyridin-3-yl)-N-(piperidin-3-yl)pyrimidin-2-amine]	171
Cc1ccc2c(NCc3ncsc3C)cccc2c1Oc1ncccc1-c1ccnc(N[C@H]2CCCNC2)n1 [Example 346, (S)-4-(2-((2-Methyl-5-(((5-methylthiazol-4-yl)methyl)amino)naphthalen-1-yl)oxy)pyridin-3-yl)-N-(piperidin-3-yl)pyrimidin-2-amine]	136
Cc1ccc2c(NCCC(C)(C)C#N)cccc2c1Oc1ncccc1-c1ccnc(N[C@H]2CCCNC2)n1 [Example 347, (S)-2,2-Dimethyl-4-((6-methyl-5-((3-(2-(piperidin-3-ylamino)pyrimidin-4-yl)pyridin-2-yl)oxy)naphthalen-1-yl)amino)butanenitrile]	48
Cc1ccc2c(NCCC(F)(F)F)cccc2c1Oc1ncccc1-c1ccnc(N[C@H]2CCCNC2)n1 [Example 348, (S)-4-(2-((2-Methyl-5-((3,3,3-trifluoropropyl)amino)naphthalen-1-yl)oxy)pyridin-3-yl)-N-(piperidin-3-yl)pyrimidin-2-amine]	79
Cc1ccc2c(NCC(C)C)cccc2c1Oc1ncccc1-c1ccnc(N[C@H]2CCCNC2)n1 [Example 349, (S)-4-(2-((5-(Isobutylamino)-2-methylnaphthalen-1-yl)oxy)pyridin-3-yl)-N-(piperidin-3-yl)pyrimidin-2-amine]	432
Cc1ccc2c(NS(=O)(=O)CC(C)(C)C)c(F)ccc2c1Oc1ncccc1-c1ccnc(N[C@H]2CCCNC2)n1 [Example 350, (S)—N-(2-Fluoro-6-methyl-5-((3-(2-(piperidin-3-ylamino)pyrimidin-4-yl)pyridin-2-yl)oxy)naphthalen-1-yl)-2,2-dimethylpropane-1-sulfonamide]	37.4
Cc1ccc2c(-c3ccccn3)cccc2c1Oc1ncccc1-c1ccnc(N[C@H]2CCCNC2)n1 [Example 353, (S)-4-(2-((2-Methyl-5-(pyridin-2-yl)naphthalen-1-yl)oxy)pyridin-3-yl)-N-(piperidin-3-yl)pyrimidin-2-amine]	133
Cc1cn(C)nc1Nc1cccc2c(Oc3ncccc3-c3ccnc(N[C@H]4CCCNC4)n3)c(C)ccc12 [Example 358, (S)-4-(2-((5-((1,4-Dimethyl-1H-pyrazol-3-yl)amino)-2-methylnaphthalen-1-yl)oxy)pyridin-3-yl)-N-(piperidin-3-yl)pyrimidin-2-amine]	266
Cc1ccc2c(Nc3ccn(C)n3)c(F)ccc2c1Oc1ncccc1-c1ccnc(N[C@H]2CCCNC2)n1 [Example 359, (S)-4-(2-((6-Fluoro-2-methyl-5-((1-methyl-1H-pyrazol-3-yl)amino)naphthalen-1-yl)oxy)pyridin-3-yl)-N-(piperidin-3-yl)pyrimidin-2-amine]	438
Cc1ccc2c(Nc3nn(C)cc3F)cccc2c1Oc1ncccc1-c1ccnc(N[C@H]2CCCNC2)n1 [Example 360, (S)-4-(2-((5-((4-Fluoro-1-methyl-1H-pyrazol-3-yl)amino)-2-methylnaphthalen-1-yl)oxy)pyridin-3-yl)-N-(piperidin-3-yl)pyrimidin-2-amine]	455
CCCS(=O)(=O)Nc1cccc2c(Oc3ncccc3-c3ccnc(N[C@@H]4CNC[C@H](C)C4)n3)c(C)ccc12 [Example 361, N-(6-Methyl-5-((3-(2-(((3S,5R)-5-methylpiperidin-3-yl)amino)pyrimidin-4-yl)pyridin-2-yl)oxy)naphthalen-1-yl)propane-1-sulfonamide]	85.1
Cc1ccc2c(NS(=O)(=O)CC(F)(F)F)c(F)ccc2c1Oc1ncccc1-c1ccnc(N[C@H]2CCCNC2)n1 [Example 362, (S)-2,2,2-Trifluoro-N-(2-fluoro-6-methyl-5-((3-(2-(piperidin-3-ylamino)pyrimidin-4-yl)pyridin-2-yl)oxy)naphthalen-1-yl)ethanesulfonamide]	23.4
Cc1ccc2c(NC(=O)C(C)(C)C#N)cccc2c1Oc1ncccc1-c1ccnc(N[C@H]2CCCNC2)n1 [Example 363, (S)-2-Cyano-2-methyl-N-(6-methyl-5-((3-(2-(piperidin-3-ylamino)pyrimidin-4-yl)pyridin-2-yl)oxy)naphthalen-1-yl)propanamide]	408
